# US20200400567A1, “FUSION POLYPEPTIDE” (PEKING UNIVERSITY, priority 2017, published 2020)
# Assays:
# Type in all cases: cell-based
# [1] = tested on: human ADRA2A receptor
# Description: The perfusion system was set on a microscope, and including a solution-introduced system, an imaging cell, and a suction pump. During the perfusion process, the imaging cell was placed above the objective lens of the inverted microscope, and the slide with cultured cells was placed in the cell. The perfusion experiments of different drugs were performed by controlling the switches of the different pipes of the solution-introduced system. The perfusion speed was set to one drop or so per second. In order to ensure the stability of the focal plane, the liquid level was kept constant at all times, and the flow rate of each solution was adjusted accordingly. The aspiration speed was adjusted to maintain the liquid level in the cell over the slide.
# The region of interest (ROI) and background area were selected manually prior to the perfusion experiment. The exposure time was set to less than 50 ms and the acquisition frequency was 5 seconds. The solution used for the perfusion was a physiological solution 4k (pH 7.3-7.4), which was used to formulate the drug to the desired concentration. The running time of the program was set to no more than 5 min. After using 4k to balance and stabilize the cells for about 60-90 s, the cells were perfused with drug for 60 s, and then washed with 4k. The excitation light for green fluorescent protein was 488 nm, and for red fluorescent protein was 568 nm. The laser intensity was adjusted according to the working state of the laser and the expression level of the cells.
# After the end of the program, the time-fluorescence intensity data sheet was exported. The background was subtracted from the ROI to get the corresponding fluorescence value Ft, and the average value of the fluorescence value before adding the drug was used as the starting fluorescence F0 to calculate
# The detection of the response of the GRAB sensor to the ligand (ΔF/F0) was performed by drug perfusion. The cells were maintained in a standard physiological solution, and the formula thereof is: […]
# Fluorescence imaging data was processed using ImageJ software. For the fluorescence performance of GRAB sensors in HEK293T cells and neurons, the entire cell body was selected as the data processing region. The change in the fluorescence signal was usually indicated by its relative intensity change. The background area without the expression of the sensor was first subtracted from the fluorescence signal, so as to obtain the true expression intensity of the fluorescent protein.
# [2] = tested on: human ADRA2A receptor; test: Response kinetics of GRAB-NE2.2 by photolysis of NPEC-caged-NE; settings: GRAB-NE2.2, 10 μM Yohimbine
# Description: 100 μM NPEC-NE was prepared in DMSO. The photo-uncaging experiment was performed on a Nikon laser scanning confocal microscope. The light stimulation was 80% of the 405 nm laser for 76 ms, and the stimulation area was 2×2 pixel rectangle (1 pixel=0.62 μm).
# By caging neurotransmitters, neurotransmitters can be quickly activated and released in a certain area, and the signal of the sensor was fast scanned by a microscope to obtain the time constant for the change in fluorescence intensity after the sensor binds to the ligand. The experiment was performed in HEK293T cells using the neurotransmitter NPEC caged NE (i.e., NPEC-NE) (FIG. 29a), 405 nm laser for activating NPEC-caged NE, and GRAB-NE2.2.
# [3] = tested on: human ADRA2A receptor; test: GRAB-NE2.1 in cultured rat cortical neurons, drug perfusion; settings: GRAB-NE2.1 in neurons
# Description: Newborn Sprague-Dawley rats were used for the primary culture of rat neurons. After the skin was washed with alcohol, the head of newborn rat was dissected with surgical instruments, and the vascular membrane on the surface of the cortex was carefully removed after removing the brain. The cortical tissue was cut into pieces and placed in a 0.25% trypsin solution, and digested for 10 minutes in an incubator at 37° C. The digestion was terminated with a DMEM medium containing 5% FBS, and the cells were further isolated by slowly pipetting up and down ten times with a pipette. After standing for 5 minutes, the pellet containing the tissue debris was discarded and the upper layer solution was collected and centrifuged at 1000 rpm for 5 minutes in a centrifuge. Thereafter, the supernatant was discarded and the neurons were resuspended with the Neurobasal+B27 medium used for culturing the neurons. The density was calculated using a cell counting chamber. After that, the cells were diluted at a density of 0.5-1×10^6 cells/ml and plated on the slides coated with poly-lysine (Sigma). Primary neurons were cultured in the Neurobasal+B27 medium, and a half of the medium was exchanged every two days. […]
# The optical signal changes of neurons expressing neurotransmitter sensors were detected by perfusion with a neurotransmitter solution.
# [4] = tested on: human ADRA2A receptor; test: GRAB-NE2.1 in primary cultured rat cardiomyocytes, drug perfusion; settings: GRAB-NE2.1 in cardiomyocytes, 1 μM Yohimbine
# From the text: The GRAB-NE2.1 sensor was transfected into primary cultured rat cardiomyocytes by liposomes, and the optical signal changes for the ligand binding and affinity for ligand were detected by drug perfusion.
# [5] = tested on: human acetylcholine receptor M3R subtype; test: GRAB-ACh sensor fluorescence response to ACh, drug perfusion in HEK293T cells; settings: GRAB-ACh 1.0 in cells, blocking agent mixed with ACh
# Description: (§1) After DNA encoding specific GRAB sensor was introduced into cells by transfection, fluorescence imaging combined with perfusion experiment was. The imaging capture of HEK293T cells was performed using an Olympus IX81 inverted microscope, 40×NA: 1.35 oil lens, 475/28 excitation light filter, and 515LP emission light filter. The optical signal was collected by a Zyla sCMOS DG-152V-Cle FI camera (Andor), and Lambda DG-4 from Sutter Instuments company was used as a fluorescent light source. The exposure time was set to less than 50 ms and the acquisition frequency was 5 seconds. The entire imaging system was overall controlled by micromanager software.
# The detection of the response of the GRAB sensor to the ligand (ΔF/F0) was performed using a drug perfusion method. The cells were placed in a standard physiological solution, and the formula thereof is: […]
# The pH of the physiological solution was adjusted to about 7.4, and the small molecule drug was diluted with a part of the physiological solution to formulate solutions of respective concentrations of the small molecule ligand. […] Unless explicitly specified, the concentration of isoproterenol (ISO) for perfusion was 2 μM, and the concentration of acetylcholine for perfusion was 100 μM.
# The perfusion system was equipped on a microscope, including a solution-introduced system made of syringe for injection, a multi-way valve, an imaging workbench and a suction pump. During the perfusion process, the imaging workbench was placed above the objective lens of the inverted microscope, and then the slide on which cell plated were placed in the workbench. Perfusion of different drugs were performed by controlling the switches of different pipes. In order to control the level of the solution in the workbench, the perfusion speed was set to one drop or so per second. After each drug treatment, the cells were washed with a physiological solution for more than five minutes to ensure that there were no residual drugs that will affect subsequent experiments. After the end of each experiment, the perfusion pipe and the workbench were cleaned with 75% ethanol three times to ensure that the residual drugs and impurities were fully washed away.
# Fluorescence imaging data was processed using ImageJ software. For the performance of GRAB sensors in HEK293T cells and neurons, the fluorescence of entire cell body was selected as the data processing region. For living Drosophila imaging, fluorescence images on the same Z axis were analyzed by ImageJ software. The change in the fluorescence signal was indicated by its relative difference. The signal of background area without the expression of the sensor was first subtracted from the fluorescence signal, so as to obtain the real expression of the intensity of the fluorescent protein. Then, by calculating the fluorescence value F after adding the drug and the average fluorescence value F0 before adding, the relative fluorescence change ΔF/F=(F−F0)/F0 was obtained as the fluorescence response of the sensor to a specific drug. The change of ΔF/F0 with time was further plotted by Origin 8.6 software.
# Based on GRAB-ACh 1.0, this peptide linker was optimized. First, based on a flexible amino acid (glycine, alanine), the peptide segment was screened for optimal length. The specific strategy was to change the length of the peptide linkers at the N-terminus and C-terminus from 0 to 5 amino acids, respectively, and to randomly combine the N-terminus with C-terminus to obtain all possible permutations. Fusion protein expression vectors containing various arrangements were expressed in HEK293T cells and subjected to perfusion experiments.
# [6] = tested on: Gαq-mediated signal transduction pathway; test: TGFα release in Gαq stable cell lines; settings: ACh
# From the text: The coupling of GRAB-ACh4.0 and downstream Gαq was detected. First, three stable cell lines were constructed based on the Gαq cell line: M3R (marked as CHRM3 in FIG. 51), GRAB-ACh4.0, and blank (marked as Gq in FIG. 51) cell lines; then, the release of TGFα was used to characterize the extent to which the Gαq protein was activated. […], causing the release of TGF-α with alkaline phosphatase even when there is no signal from Gαq. Therefore, TPA was added to cells as a positive control.
# [7] = tested on: human acetylcholine receptor M3R subtype; test: GRAB-ACh 1.0 in cultured rat cortical neurons, perfusion
# Description: Newborn Sprague-Dawley rats were used for the primary culture of rat neurons. After the skin of rat was cleaned with alcohol, the head was dissected with surgical instruments, the brain was removed out and the vascular membrane on the surface of the cortex was carefully removed. The cortical tissue was cut into pieces and placed in a 0.25% trypsin solution, and digested for 10 minutes in an incubator at 37° C. After the digestion, the digestion was terminated with DMEM medium containing 5% FBS, and the cells were further isolated by slowly pipetting up and down ten times with a pipette. After standing for 5 minutes, the pellet containing the tissue debris was discarded and the upper layer solution was collected and centrifuged at 1,000 rpm for 5 minutes in a centrifuge. Thereafter, the supernatant was discarded and the neurons were resuspended with the Neurobasal+B27 medium which was used for culturing the neurons. The cell density was calculated using a cell counting chamber. After that, the cells were diluted at a density of 0.5-1×10^6 cells/ml and plated on the slides coated with poly-lysine (purchased from Sigma). […]
# The optical response of neurons expressing the neurotransmitter sensor was observed by perfusion with a neurotransmitter solution. The neurotransmitter-specific optical signals were recorded, which were fast and stable, and have good repeatability in different neurons. […]
# [8] = tested on: human β2 adrenergic receptor; test: GRAB-EPI sensor fluorescence response (ΔF/F0) to ISO, drug perfusion in HEK293T cells; settings: GRAB-EPI 1.0 in cells, blocking agent mixed with ISO
# Description: as §1
# The detection of the response of the GRAB sensor to the ligand (ΔF/F0) was performed using a drug perfusion method. […]
# Fluorescence imaging data was processed using ImageJ software. For the performance of GRAB sensors in HEK293T cells and neurons, the fluorescence of entire cell body was selected as the data processing region. For living Drosophila imaging, fluorescence images on the same Z axis were analyzed by ImageJ software. The change in the fluorescence signal was indicated by its relative difference. The signal of background area without the expression of the sensor was first subtracted from the fluorescence signal, so as to obtain the real expression of the intensity of the fluorescent protein. […]
structure (smiles),measurement,setting,value
COC(=O)[C@@H]1[C@H]2C[C@H]3c4[nH]c5ccccc5c4CCN3C[C@@H]2CC[C@@H]1O [Yohimbine],effect of blocker on NE concentration-dependent changes,"[1]; GRAB-NE2.0, 10 nM to 100 μM NE, 1 μM Yohimbine",completely inhibited
same,effect of blocker on ligand-induced NE sensor signal changes,"[1]; GRAB-NE2.0, Yohimbine 2 μM",can inhibit
same,effect of blocker on NE-induced fluorescence signal,"[1]; GRAB-NE2.1, Yohimbine 2 μM",can inhibit
same,effect of blocker on photolysis-induced fluorescence change,[2],inhibited
same,effect of blocker on ligand-induced optical signal changes,[3],can inhibit
same,effect of blocker on NE reaction,[4],can inhibit
"C[N+]1(C)[C@@H]2C[C@@H](OC(=O)C(O)(c3cccs3)c3cccs3)C[C@H]1[C@@H]1O[C@@H]12 [Tio, Tiotropium bromide]",effect of blocking agent on ligand (Ach)-induced fluorescence increase,[5],specifically blocked
same,effect of antagonist on downstream signal induced by M3R,[6],completely block
same,effect of receptor blocker on response to acetylcholine,[7],can block
Cc1ccc(OCC(O)C(C)NC(C)C)c2c1CCC2 (stereo not shown) [ICI],effect of blocking agent on agonist (ISO)-induced fluorescence increase,[8],specifically blocked
